Columns and labels:
[1] = tested on: tobacco aphid, Myrzus Nicotiana Blackman; assay: Spray bioassay against tobacco aphids; assay type: in vivo; settings: individual SE groups; 1 mg SE/ml aqueous spray solution; after 24 hours; average of number of tests
Description: (§1) Bioassays of the total SE reaction products as well as of the individual groups of SE were conducted using the tobacco aphid, Myrzus Nicotiana Blackman, the greenhouse whitefly, Trialeurodes vaporariorum Westwood, and the sweetpotato whitefly, Bemisia tabaci Gennadius. Aqueous dispersions of sugar ester fractions, obtained from the column chromatographic step or the total reaction SE products were tested generally at a concentration of 1 mg/ml of water. To prepare the sprayable aqueous mixtures, a small amount of methanol (approximately about 20 μl per 10 mg of dried test compound) is added to the dried test compound. This is agitated gently. Then acetone is added to the methanol mixture to yield a concentration of approximately about 0.05 g/ml. This is shaken gently. To obtain a final, sprayable concentration of approximately about 1 mg sucrose ester/ml, about 10 ml of water are added to the mixture. This is then placed into an ultrasonic bath for 20 minutes. The resulting solution is ready to spray. Green-house reared apterous (wingless) aphids, that colonized a green tobacco plant, were removed with a leaf, sprayed, and kept in a closed petri dish. Percent mortality was determined after 24 hours. In a similar manner, bioassays against the green house whitefly or sweetpotato whitefly are conducted by spraying sucrose ester dispersions at 1 mg/ml of water onto whiteflies, trapped on a sticky surface, and determining percent mortality after 2-24 hours. Tables II and III below show the percent mortality of aphids treated by the individual sucrose ester groups and the total SE reaction products.

[2] = tested on: greenhouse whitefly, Trialeurodes vaporariorum Westwood; assay: Spray bioassay against the greenhouse whitefly; assay type: in vivo; settings: group 2 SE, 1.0 mg/ml spray solution, after 24 hours, average of number of tests
Description: as §1

Compound | % Mortality [1] | % Mortality [2] | mortality at 1000 µg/mL ([2]; Trialeurodes vaporariorum)
diheptanoyl sucrose | 88% | 100% | –
CCCCCCCC(=O)OCC1OC(OC2(CO)OC(COC(=O)CCCCCCC)C(O)C2O)C(O)C(O)C1O (single isomer, unassigned) [dioctanoyl sucrose] | 88% | – | 100%
monononanoyl sucrose | 16% | – | –
monooctanoyl sucrose | 11% | – | –
tridnanoyl sucrose | 13% | – | –
dihexanoyl sucrose | – | 77% | –
dinonanoyl sucrose | 64% | 87% | –
tridecanoyl sucrose | 15% | – | –
CCCCCCCC(=O)OCC1OC(OC2(COC(=O)CCCCCCC)OC(COC(=O)CCCCCCC)C(O)C2O)C(O)C(O)C1O (single isomer, unassigned) [trioctanoyl sucrose] | 27% | – | –
monoheptanoyl sucrose | 17% | – | –
tridodecanoyl sucrose | 15% | – | –
didodecanoyl sucrose | 23% | 100% | –
triheptanoyl sucrose | 16% | – | –
monodecanoyl sucrose | 47% | – | –
didecanoyl sucrose | 43% | 100% | –
monododecanoyl sucrose | 47% | – | –
